This is an account of results in patent US9861712B2, “Preparation of extremely small and uniform sized, iron oxide-based paramagnetic or pseudo-paramagnetic nanoparticles and MRI T1 contrast agents using the same” (Hanwha Chemical Corporation, priority 2010, dated 2018).

For this data set, the system named is rats. Kind of data set: In vivo MR imaging (dynamic time-resolved MR angiography, 3d-FLASH) of blood vessels. Here is the method:
Dynamic time-resolved MR angiography and 3d-FLASH images of rats were acquired using a wrist coil on a 3 T MRI scanner before and after the injection of 3 nm iron oxide nanoparticles capped by PO-PEG, prepared according to example 13 (dose: 2.5 mg Fe/kg). The pre-contrast images were subtracted from post-contrast images, and the resulting images were reconstructed using maximum intensity projection (MIP) protocol with OsriX (Version 3.8.1; 32 bit; OsiriX foundation, Geneva). Dynamic time-resolved MR angiography was obtained with an interpolated temporal resolution of 1.25 second and the following parameters: flip angle=20, ETL=1, TR=3.1 ms, TE=1.13 ms, field of view FOV=75×140 mm^2, matrix=256×106, slice thickness/gap=2.5 mm/0 mm, and NEX=1. The imaging parameters of 3d-FLASH are as follows: flip angle=25, ETL=1, TR=25 ms, TE=5.1 ms, field of view FOV=110×65 mm^2, matrix=256×169, slice thickness/gap=1.0 mm/0 mm, and NEX=2.
MR imaging using the 3 nm nanoparticles capped by glucose 6-phosphate was performed according to example 16.

In the case of `O=C([O-])CN1CCN(CC(=O)[O-])CCN([C@H](CO)[C@H](O)CO)CCN(CC(=O)[O-])CC1.[Gd+3]` (racemic) [Gadovist], the “contrast effect of in vivo MR image immediately after the injection” value (immediately after the injection) is “high contrast effect”. Also, the “time in which the bright signal vanished” value (in vivo MR image after injection) came out at 2 min. Also, the blood half-life result (in words) is listed as “short blood half-life”.
